Measurements as given in patent publication US5891454A, “Anti-cancer drug and special tumor necrotizing agent” (Wu; Alexander, priority 1997, dated 1999).
“And” between values parts separate entries of the source, which are not always exact repeats. Equal entries are not always repeated.

What was measured:
[1] = test system: mouse transplanted liver tumor; assay: Anti-tumor effect on mouse transplanted liver tumor (I.M.); format: in vivo; settings: CTX 18.0 mg/kg/d x10
From the text: (§1) A solvent blank (i.e., the specifically designed solution illustrated in Table 1), a saline blank as a […] control are used as controls for the in vivo tests. As per the Drug Administration Law of the People's Republic of China, and the rules governing observation of the pharmaco-dynamic study of the therapy action, the tumors were surgically removed from tumor infected mice and were homogenized to form suspensions followed by filtration to make a suspension solution at 1×10^6 -10^7 cell/ml. The suspension was injected (i.e., 0.2 ml per mice) into the test mice for tumor growth until the transplanted tumor cells were established and grew up to a size of 0.5×0.5 cm. […] At the end of the in vivo tests, several parameters such as mouse body weight, average tumor weight and percentage of tumor inhibition, are determined.
(§2) % inhibition rate=(average tumor weight of the solvent group or
(§3) tumor rate of the solvent group

mouse S-180 sarcoma = assay: Anti-tumor effect on mouse transplanted sarcoma S-180 (I.M.); format: in vivo; settings: CTX 18.0 mg/kg/d x10
From the text: as §1, §2, §3

Solubility in water = format: physicochemical; settings: water or a water-based solution
skin fungal diseases = settings: 7-8% solution by weight with propylene glycol; cited from earlier work
[2] = P <0.01 vs saline control, three experiments

O=P1(N(CCCl)CCCl)NCCCO1 (centres unmarked) [CTX]
Anti-tumor inhibit rate [1, 2]: 40.7% and 46.2% and 60.0% | Body weight final ([1]; outset 19.9, 20.3, 20.9 in three experiments, in g (unit assumed)): 27.9 and 28.5 | Ave. weight of tumor (x + SD) ([1]; three experiments): 1.81 ± 0.22 g and 1.57 ± 0.63 g and 0.94 ± 0.41 g | Anti-tumor inhibit rate (mouse S-180 sarcoma; [2]): 51.6% and 53.3% and 52.5% | Body weight final (mouse S-180 sarcoma; outset 22.4, 22.6, 19.3 in three experiments, in g (unit assumed)): 30.9 and 26.4 | Ave. weight of tumor (x ± SD) (mouse S-180 sarcoma; three experiments): 1.37 ± 0.47 g and 1.29 ± 0.43 g and 1.14 ± 0.28 g

Cc1ccc(S(N)(=O)=O)cc1 [para-toluene sulfonamide]
dissolution in water (Solubility in water): not readily dissolved in water or in a water-based solution | topical anti-fungal activity (skin fungal diseases): highly effective
